Measurements taken from US7772237B2, “Thio-substituted tricyclic and bicyclic aromatic methanesulfinyl derivatives” (Cephalon France, priority 2004, dated 2010).

System: male Wistar rats
Assay: Evaluation of wake promoting activity in rats (EEG/EMG sleep/wake scoring)
Format: in vivo, rat
Settings: i.p., 100 mg/kg, p<0.05 vs control groups
Method: Biological Data Methodology: Evaluation of Wake Promoting Activity in Rats
The methodology utilized for evaluating wake promoting activity of test compounds is based on that described by Edgar and Seidel, Journal of Pharmacology and Experimental Therapeutics, 283:757-769, 1997, and incorporated herein in its entirety by reference.
Animal Surgery. Adult, male Wistar rats (275-320 g from Charles River Laboratories, Wilmington, Mass.) were anesthetized (Nembutal, 45 mg/kg, ip.) and surgically prepared with implants for recording of chronic EEG (encephalographic) and EMG (electromyographic) recording. The EEG implants were made from commercially available components (Plastics One, Roanoke, Va.). EEG signals were recorded from stainless steel screw electrodes: 2 frontal (+3.0 mm AP from bregma, ±2.0 mm ML), and 2 occipital (−4.0 mm AP from bregma, ±2.0 mm ML). Two Teflon-coated stainless steel wires were positioned under the nuchal trapezoid muscles for EMG recording. […]
Data acquisition. […] On the day of dosing, data was recorded for 6 to 10 hours beginning at 11 AM.
(i) Drug administration and study design. Compounds were evaluated on groups of from 4 to 8 rats carried out over one or two separate test sessions. […]
Sleep/wake scoring. Sleep and wake activity were determined manually using ICELUS software. […]

CC(C)(C)OC(=O)N1CCN(C(=O)CSCc2ccc3oc4ccc(F)cc4c3c2)CC1 [Example 26, 4-[2-(8-fluorodibenzofuran-2-yl-methylsulfanyl)acetyl]-piperazine-1-carboxylic acid tert-butyl ester]
wakefulness compared to vehicle-treated animals: significantly greated wakefulness
